For the assay, the system named is HDAC (Hela Nuclear Extract). The experiment in a line: In vitro HDAC fluorescent activity assay (Biomol kit, Fluor de Lys substrate) with Hela Nuclear Extract. It is filed as biochemical. Conditions: compounds reduced with 30 mM DTT prior to analysis; diluted Hela Nuclear Extract; 37° C. for 1 hour; mean of duplicate samples. As for the experimental part: In vitro HDAC assays were performed using a HDAC fluorescent activity assay kit (Biomol, UK) according to the manufacturer's instructions. Compounds were reduced prior to analysis; 1 mM compound was reduced with 30 mM DTT in DMSO overnight at room temperature, protected from light. Reactions were then set up in a 96-well plate. For each reaction 10 μl compound (5× required concentration in assay buffer) was mixed with […] diluted Hela Nuclear Extract (30-fold in assay buffer). Serial dilutions were set up for each compound. Reactions containing Hela extract only and assay buffer only were also set up. 25 μl diluted Fluor de Lys™ substrate (100-fold in assay buffer) was added to each reaction, which were then incubated at 37° C. for 1 hour. The reaction was stopped by addition of 50 μl Fluor de Lys™ Developer (20-fold dilution in assay buffer, plus TSA diluted 100-fold). The reactions were then incubated at room temperature for 10 minutes before fluorescence was measured using a CytoFluor II Fluorescence Multiwell Plate Reader and CytoFluor II software with filters set at […] for excitation and […] for emission. Inhibition of in vitro HDAC activity was determined for mean values of duplicate samples as percentages relative to HeLa extract only reactions. IC50 values were calculated using GraphPad Prism software.

The structures appear in SMILES notation.

Consider `CC(C)[C@H]1NC(=O)[C@@H](Cc2ccccc2)NC(=O)[C@@H](C)NC(=O)C[C@@H](/C=C/CCS)OC(=O)CNC1=O` [Compound 16, (6R,9R,12R,16S)-9-Benzyl-6-isopropyl-16-((E)-4-mercapto-but-1-enyl)-12-methyl-1-oxa-4,7,10,13-tetraaza-cyclohexadecane-2,5,8,11,14-pentaone], for which it took 47 ± 9.9 nM to reach half-maximal inhibition (IC50). Take `CC(=O)SCC/C=C/[C@@H]1CC(=O)N[C@H](C)C(=O)N[C@H](Cc2ccccc2)C(=O)N[C@H](C(C)C)C(=O)NCC(=O)O1` [Compound 17, Thioacetic acid S-[(E)-4-((6R,9R,12R,16S)-9-benzyl-6-isopropyl-12-methyl-2,5,8,11,14-pentaoxo-1-oxa-4,7,10,13-tetraaza-cyclohexadec-16-yl)-but-3-enyl]ester]: the IC50 (as a rule, the concentration needed to halve the response being measured) stood at 126 ± 5.3 nM.
